Where a name gives a salt, the structure may show the parent alone. ± gives the standard deviation.
Assay: chemical recovery from spiked human plasma; higher = better extraction
Settings: pooled human plasma
[1] = extraction method: PES+SPE (3 d PDMS equilibration then HLB SPE)
[2] = extraction method: SPE only (HLB 96-well)
[3] = extraction method: solvent precipitation (ACN + hexane)
[4] = extraction method: SPE only (HLB 96-well), PES comparison experiment

Structure (SMILES) | chemical recovery [1] | chemical recovery [2] | chemical recovery [3] | chemical recovery [4]
CNC(=O)Oc1cccc2c1OC(C)(C)C2 [Carbofuran] | 41.4 ± 4.8% | 43.6 ± 1.7% | 47.2 ± 7% | –
CCCC(C)(COC(N)=O)COC(=O)NC(C)C (stereo unspecified) [Carisoprodol] | – | – | 78.1 ± 5.9% | –
C[C@H](CCC(=O)O)[C@H]1CC[C@H]2[C@@H]3[C@H](O)C[C@@H]4C[C@H](O)CC[C@]4(C)[C@H]3CC[C@]12C [Chenodeoxycholic-acid] | – | 37.4 ± 7.9% | 74.9 ± 4.7% | –
CNC(=O)c1cc(Cl)cc(C)c1NC(=O)c1cc(Br)nn1-c1ncccc1Cl [Chlorantraniliprole] | 66.7 ± 5.2% | 49.5 ± 2.3% | 75.5 ± 1.2% | –
Cc1cc(Cl)ccc1/N=C/N(C)C [Chlordimeform] | 28.8 ± 4.5% | 24.7 ± 4.2% | 30.1 ± 3.3% | –
O=C(O)C1C(C(=O)O)C2(Cl)C(Cl)=C(Cl)C1(Cl)C2(Cl)Cl (stereo unspecified) [Chlorendic-acid] | 27 ± 6.5% | 23.9 ± 3.7% | 28.2 ± 7.5% | –
C[N+](C)(C)CCCl [Chlormequat] | 0.51 ± 0.024% | 0.778 ± 0.52% | 85 ± 12% | 10.2 ± 8.2%
COc1nc(C)nc(NC(=O)NS(=O)(=O)c2ccccc2Cl)n1 [Chlorosulfuron] | – | – | 67.9 ± 3.4% | –
N#Cc1c(O)c(Cl)c(Cl)c(C#N)c1Cl [Chlorothalonil-4-hydroxy] | 37.1 ± 5.2% | 32.4 ± 3% | – | 33.8 ± 7.8%
CC(C)OC(=O)Nc1cccc(Cl)c1 [Chlorpropham] | 37.9 ± 13% | 41.5 ± 2.7% | 43.8 ± 4.5% | –
CCOP(=S)(OCC)Oc1nc(Cl)c(Cl)cc1Cl [Chlorpyrifos] | – | – | – | 33.3 ± 7.2%
C[C@H](CCC(=O)O)[C@H]1CC[C@H]2[C@@H]3[C@H](O)C[C@@H]4C[C@H](O)CC[C@]4(C)[C@H]3C[C@H](O)[C@]12C [Cholic-acid] | – | 48.4 ± 3.9% | – | –
Clc1ccccc1C(c1ccccc1)(c1ccccc1)n1ccnc1 [Clotrimazole] | – | – | – | 56.3 ± 11%
COc1cc2c(c(OC)c1OC)-c1ccc(OC)c(=O)cc1[C@@H](NC(C)=O)CC2 [Colchicine] | 48.5 ± 3.6% | 45 ± 3.9% | 70 ± 2.5% | –
Cc1ccc(-c2c(Cl)nc(C#N)n2S(=O)(=O)N(C)C)cc1 [Cyazofamid] | – | 41 ± 2% | – | –
O=C1CCCCCCCCCCC1 [Cyclododecanone] | – | 4.5 ± 3.9% | – | –
NC1CCCCC1 [Cyclohexylamine] | 2.9 ± 1.6% | 2.07 ± 3.6% | 35.9 ± 9.5% | –
C1CCC2CCCCC2C1 (stereo unspecified) [Decahydronaphthalene] | – | – | – | 3.14 ± 1.3%
CC[S+]([O-])CCSP(=O)(OC)OC (stereo unspecified) [Demeton-S-methyl-sulfoxide] | 35.2 ± 3.8% | 30.2 ± 2.2% | 42.7 ± 12% | –
C[C@H](CCC(=O)O)[C@H]1CC[C@H]2[C@@H]3CC[C@@H]4C[C@H](O)CC[C@]4(C)[C@H]3C[C@H](O)[C@]12C [Deoxycholic-acid] | – | 38.5 ± 8.1% | 75.8 ± 6.6% | –

Structure (SMILES) | chemical recovery [1] | chemical recovery [2] | chemical recovery [3] | chemical recovery [4]
COc1ccc2c(c1)[C@]13CCCC[C@@H]1[C@H](C2)N(C)CC3 [Dextromethorphan] | 0.431 ± 0.16% | 39.3 ± 3.3% | 70.1 ± 5.1% | –
CCCCOP(=O)(O)OCCCC [Di-n-butyl-phosphate] | 40.8 ± 6.1% | 40.5 ± 3.9% | – | –
CCCCCOC(=O)c1ccccc1C(=O)OCCCCC [Di-n-pentylphthalate] | – | 29.6 ± 6.2% | – | –
c1ccc2c(c1)sc1ccccc12 [Dibenzothiophene] | – | 16.2 ± 6.1% | – | –
Oc1cc(Cl)ccc1Oc1ccc(Cl)cc1 [Diclosan] | – | 32.1 ± 2.6% | 41.7 ± 3.2% | –
COP(=O)(OC)O/C(C)=C/C(=O)N(C)C [Dicrotophos] | 38.5 ± 3.5% | 37.3 ± 0.93% | 59.3 ± 8.9% | –
C1CCC(NC2CCCCC2)CC1 [Dicyclohexylamine] | – | 35.2 ± 2.1% | 53.8 ± 6.1% | –
O=C(NC1CCCCC1)NC1CCCCC1 [Dicyclohexylurea] | 54.4 ± 4.7% | 56.9 ± 0.74% | 78.6 ± 1.8% | –
CCCCCCCCCC[N+](C)(C)CCCCCCCCCC [Didecyldimethylammonium] | – | 67.1 ± 21% | – | –
COCCOCCO [Diethyleneglycolmonomethylether] | – | 1.78 ± 2.6% | – | –
O=C(Nc1ccc(F)cc1F)c1cccnc1Oc1cccc(C(F)(F)F)c1 [Diflufenican] | – | 31 ± 3.5% | 52.3 ± 4.8% | 35.6 ± 6.6%
COCCOCCOC [Diglyme] | – | 11.5 ± 3.1% | – | –
CCCCCCOC(=O)c1ccccc1C(=O)OCCCCCC [Dihexyl-phthalate] | – | 20.6 ± 3.2% | – | –
CC(=O)CCC1C(C)=CCCC1(C)C (stereo not drawn) [Dihydro-alpha-ionone] | – | 3.54 ± 6.1% | – | –
CC(C)CCCCCCOC(=O)c1ccccc1C(=O)OCCCCCCC(C)C [Diisononyl-phthalate] | – | 23.4 ± 7.7% | – | –
COC(=O)c1ccccc1C(=O)OC [Dimethylphthalate] | 46 ± 3.9% | – | 67.3 ± 4.1% | –
CN/C(=N/CC1CCOC1)N[N+](=O)[O-] (stereo unspecified) [Dinotefuran] | – | 27.4 ± 2.9% | 76.3 ± 3.7% | –
CC(C)(C)c1cc([N+](=O)[O-])cc([N+](=O)[O-])c1O [Dinoterb] | 48.5 ± 5% | – | – | –
CCOP(=S)(OCC)SCCSCC [Disulfoton] | – | 4.52 ± 2% | – | –
O=C1CCCCCCCCCCCN1 [Dodecane-12-lactam] | 47.4 ± 4.3% | 53.4 ± 0.92% | 66.7 ± 1.7% | –

Second part, led by results:

chemical recovery [1] | chemical recovery [2] | chemical recovery [3] | Structure (SMILES) | chemical recovery [4]
28 ± 5.2% | 40.3 ± 2.9% | 72.2 ± 3.8% | c1ccc2c(c1)[nH]c1ncccc12 [Carboline] | –
– | 1.5 ± 1.3% | – | Nc1nc2c(ncn2COCC(=O)O)c(=O)[nH]1 [Carboxy-aciclovir] | –
– | – | 54.5 ± 1.9% | N=C(NCCCCCCNC(=N)NC(=N)Nc1ccc(Cl)cc1)NC(=N)Nc1ccc(Cl)cc1 [Chlorohexidine] | –
59 ± 2.5% | 46.1 ± 5.2% | 74.3 ± 3.8% | N#Cc1cc(Cl)c(O)c(Cl)c1 [Chloroxynil] | –
0.333 ± 0.13% | 33.5 ± 3.4% | 54 ± 5.6% | CN(C)CCC(c1ccc(Cl)cc1)c1ccccn1 (stereo unspecified) [Chlorpheniramine] | –
55.3 ± 5% | 47.5 ± 3.5% | 76.8 ± 4.6% | CCCNC(=O)NS(=O)(=O)c1ccc(Cl)cc1 [Chlorpropamide] | –
– | 10.9 ± 2.5% | – | c1ccc2c(c1)ccc1c3ccccc3ccc21 [Chrysene] | –
– | – | 54.8 ± 1.7% | CN/C(=N\CCSCc1nc[nH]c1C)NC#N [Cimetidine] | –
36.7 ± 3.7% | 37.9 ± 2.5% | 65.5 ± 3.8% | CCCC1CC(C(=O)NC(C(C)Cl)C2OC(SC)C(O)C(O)C2O)N(C)C1 (stereo unspecified) [Clindamycin] | –
– | 9.88 ± 8.6% | – | O=C(c1ccccc1)C1CCCCC1 [Cyclohexylphenylketone] | –
– | 3.85 ± 1.9% | – | OC[C@@H](O)[C@@H](O)[C@H](O)[C@@H](O)CO [D-Glucitol] | –
42.3 ± 4.4% | 43.9 ± 4.5% | 68.1 ± 5.1% | CCN(CC)C(=O)c1cccc(C(=O)O)c1 [DEET-carboxylic-acid] | –
– | 30.1 ± 3% | 52.6 ± 4.4% | CCN(CC)C(=O)c1cccc(C)c1 [DEET] | –
– | 6.04 ± 3.4% | – | CC(C)CCCCCCOC(=O)C1CCCCC1C(=O)OCCCCCCC(C)C (stereo unspecified) [DINCH] | 4.77 ± 1.6%
0.204 ± 0.051% | – | 0.0596 ± 0.028% | O=C(O)c1cc(SSc2ccc([N+](=O)[O-])c(C(=O)O)c2)ccc1[N+](=O)[O-] [DTNB] | –
– | 18.8 ± 4.3% | 50.4 ± 1.6% | CCCCCCCCCCOS(=O)(=O)O [Decylsulfate] | 30.8 ± 9%
– | 29.7 ± 1.9% | – | CC(C)c1ccc2c(c1)CC[C@H]1[C@](C)(C(=O)O)CCC[C@]21C [Dehydroabietic-acid] | –

chemical recovery [1] | chemical recovery [2] | chemical recovery [3] | Structure (SMILES) | chemical recovery [4]
1.49 ± 0.66% | 35.8 ± 2.3% | 62.7 ± 6.1% | CNCCCN1c2ccccc2CCc2ccccc21 [Desipramine] | –
50.7 ± 4.7% | 38.9 ± 2.4% | – | CCNc1nc(N)nc(Cl)n1 [Desisopropylatrazine] | –
0.534 ± 0.055% | 0.155 ± 0.14% | – | CC(=O)NCCNC(C)=O [Diacetylethylenediamine] | –
– | 28.7 ± 6.6% | – | CCCCOC(=O)CCCCCCCCC(=O)OCCCC [Dibutyl-sebacate] | –
42.3 ± 2.6% | 37.9 ± 3.7% | – | COc1c(Cl)ccc(Cl)c1C(=O)O [Dicamba] | –
37.7 ± 3.3% | 27.6 ± 3.1% | 71.8 ± 3.4% | O=C(CC(C(=O)OC1CCCCC1)S(=O)(=O)O)OC1CCCCC1 (stereo unspecified) [Dicyclohexyl sulfosuccinate] | 37.1 ± 6.9%
57.7 ± 5.7% | 44.3 ± 2.2% | – | O=C(CC(C(=O)OC1CCCCC1)S(=O)(=O)O)OC1CCCCC1 (stereo unspecified) [Dicyclohexyl-sulfosuccinate] | –
– | 12.9 ± 3.1% | 103 ± 14% | CC(C)CCCCOC(=O)c1ccccc1C(=O)OCCCCC(C)C [Diisoheptyl-phthalate] | –
– | – | 64.5 ± 14% | COC(=O)c1ccc(C(=O)OC)cc1 [Dimethyl-terephthalate] | –
6.91 ± 1.9% | 39.3 ± 2.3% | 73.8 ± 2% | Cc1c(N(C)C)c(=O)n(-c2ccccc2)n1C [Dimethylaminophenazone] | –
0.267 ± 0.076% | 24.1 ± 2.6% | 58.5 ± 5.4% | CC(C1=C(CCN(C)C)Cc2ccccc21)c1ccccn1 (stereo unspecified) [Dimetindene] | –
– | 26.5 ± 1.6% | – | CCCCC(CC)COC(=O)CC(C(=O)OCC(CC)CCCC)S(=O)(=O)O (stereo unspecified) [Dioctylsulfosuccinate] | –
– | 39.7 ± 11% | 80.2 ± 8.3% | CCN(CCC#N)c1ccc(N=Nc2c(Br)cc([N+](=O)[O-])cc2Br)cc1 [Disperse-Orange-61] | –
– | 33.8 ± 0.79% | – | CCCCCCCCCCCCOS(=O)(=O)O [Dodecyl sulfate] | –
– | 15.4 ± 9.1% | 54.1 ± 4.6% | Cc1ccc(O)c(-n2nc3ccccc3n2)c1 [Drometrizole] | –
1.6 ± 0.45% | 34.8 ± 2.4% | 59.7 ± 5.1% | CNCC[C@H](Oc1cccc2ccccc12)c1cccs1 [Duloxetine] | –

Reference: the supplement of paper PMC10702517
